US8497278B2, “Imidazo[1,2-a]pyridine compounds” (priority 2008, dated 2013)

Key:
[1] = system: central benzodiazepine receptors; test: Central benzodiazepine receptor binding (test of Speth et al.); settings: 1000 nM of the compound
In short: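 Radioligand binding by the Speth et al. method. Specific binding is total minus nonspecific binding, the latter measured with excess unlabelled ligand. Compounds screened at 1.0E-09, 1.0E-07 and 1.0E-05 M in single determination; values given as percent inhibition at 1000 nM compound.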

[2] = system: 129SVEV mice; test: Stress-Induced Hyperthermia (SIH) test; format: in vivo; settings: mouse, 60 min before test
Method: Stress-Induced Hyperthermia (SIH) protocol: The stress-induced hyperthermia (SIH) test is based on the principle that animal's have a natural hyperthermic response to stress. The test involves taking two measures of rectal temperature in the same animal within a 10 minute interval. The two sequential rectal temperature measurements reveal the animal's basal temperature (T1) and 10 minutes later, an enhanced body temperature (T2) due to the stress of the first rectal temperature. The difference T2-T1 (delta T) is the SIH response. When anxiolytic drugs are administered prior to recording temperature, they reduce the stress response.
Adult male 129SVEV mice (6 weeks old) from Taconic Laboratories (Germantown, N.Y.) were used in these studies. Upon receipt, mice were assigned unique identification numbers (tail marked) and were group housed in OptiMICE ventilated racks. All animals remained group housed during the remainder of the study unless indicated otherwise. All mice were acclimated to the colony room for at least two weeks prior to testing and were subsequently tested at 8 weeks of age. During the period of acclimation, mice were examined on a regular basis, handled, and weighed to assure adequate healtH, D and suitability. Mice were maintained on a 12/12 light/dark cycle with the light on at 7:00 a.m. The room temperature was maintained between 20 and 23° C. with a relative humidity maintained between 30% and 70%. Chow and water were provided ad libitum for the duration of the study. Animals were not disturbed between test days.
On the day prior to testing, the mice were brought to the experimental room one hour before scheduled lights out and singly housed overnight with food and water ad libitum. On the morning of the experiment, mice were orally dosed via gavage with vehicle, CDP (10 mg/kg) or compounds of the present invention (3, 10 or 30 mg/kg) and placed back in the cages. One hour after oral gavage, each animal was removed from the holding cage and held in a supine position and rectal temperature was measured. The rectal probe was attached to a PhysiTemp digital thermometer (Fisher Scientific) which provides temperature readings at 0.1° C. accuracy. The probe remained inside the animal for approximately 5 seconds or until body temperature reached stability. This temperature was recorded as the baseline rectal temperature (T1). The animal was immediately placed back to the holding cage and after a 10-min interval the 2nd rectal temperature (T2) was taken using the same procedure as in measuring T1. Before each insertion, the rectal probe was cleaned with an alcohol pad and lubricated with sterile K-Y jelly.
Chlordiazepoxide (10 mg/kg) was used as the positive control. Compounds of the present invention, vehicle (45% hydroxypropyl beta-cyclodextrin) and chlordiazepoxide were administered orally to all groups (n=10 […] per group) 60 minutes prior to behavioral testing. All data were analyzed using an analysis of variance (ANOVA) followed by Fisher's PLSD post hoc test. An effect was considered significance if p<0.05. Statistical outliers above or below 2 standard deviations from the mean in any of the temperature measures were removed from the final analysis.

Compound	% Inhibition at 1000 nM for CBZD [1]	Change in Temperature (T2 − T1) Mean ± S.E.M. ([2]; 3 mg/kg PO) [°C]	Change in Temperature (T2 − T1) Mean ± S.E.M. ([2]; 10 mg/kg PO) [°C]	Change in Temperature (T2 − T1) Mean ± S.E.M. ([2]; 30 mg/kg PO) [°C]
Cn1ncnc1Cc1c(-c2ccc(F)cc2)nc2ccc(F)cn12 [Compound 200, 6-fluoro-2-(4-fluorophenyl)-3-((1-methyl-1H-1,2,4-triazol-5-yl)methyl)imidazo[1,2-a]pyridine]	++ (percentage of inhibition of central BZD site binding is greater than 80% in the presence of 1000 nM of the compound)	−0.13 ± 0.11	−0.50 ± 0.15	−0.66 ± 0.13
CNC(=O)c1nccn1Cc1c(-c2ccc(Cl)cc2)nc2ccccn12 [Compound 77, 1-((2-(4-chlorophenyl)H-imidazo[1,2-a]pyridin-3-yl)methyl)-N-methyl-1H-imidazole-2-carboxamide]	++ (percentage of inhibition of central BZD site binding is greater than 80% in the presence of 1000 nM of the compound)	0.37 ± 0.15	0.55 ± 0.11	0.55 ± 0.12
Clc1ccc(-c2nc3ccccn3c2Cc2ncn[nH]2)cc1 [Compound 211, 3-((1H-1,2,4-triazol-5-yl)methyl)-2-(4-chlorophenyl)imidazo[1,2-a]pyridine]	–	0.37 ± 0.08	0.33 ± 0.09	0.37 ± 0.09
Clc1ccc(-c2nc3cccnn3c2Cn2cncn2)cc1 [Compound 32, 3-((1H-1,2,4-triazol-1-yl)methyl)-2-(4-chlorophenyl)imidazo[1,2-b]pyridazine]	++ (percentage of inhibition of central BZD site binding is greater than 80% in the presence of 1000 nM of the compound)	0.26 ± 0.04	0.28 ± 0.10	0.37 ± 0.06
NC(=O)c1ncn(Cc2c(-c3ccc(Cl)cc3)nc3ccccn23)n1 [Compound 72, 1-((2-(4-chlorophenyl)imidazo[1,2-a]pyridin-3-yl)methyl)-1H-1,2,4-triazole-3-carboxamide]	++ (percentage of inhibition of central BZD site binding is greater than 80% in the presence of 1000 nM of the compound)	0.21 ± 0.11	0.32 ± 0.05	0.44 ± 0.10
